Measured values: the NIST ThermoML archive (doi:10.1021/acs.jced.6b00516)
Numbers after ± are expanded uncertainties.

Legend:
[1] = for viscosity / speed of sound / mass density: 102 kPa, Liquid; for viscosity: Concentric cylinders viscometry; for speed of sound: Frequency=3 MHz, Sing-around technique in a fixed-path interferometer; for mass density: Vibrating tube method; for surface tension liquid-gas: Sessile Drop
[2] = xn = mol fraction of the nth substance listed; settings: 102 kPa, Liquid, Concentric cylinders viscometry, x2 = 0

CCCCC1CCCCC1 [butylcyclohexane]
[1]
Settings	mass density [kg/m3]	speed of sound [m/s]	surface tension liquid-gas [mN/m]	viscosity [mPa·s]
293.15 K	799.33 ± 0.14	1328.4 ± 0.8	–	1.31 ± 0.01
294 K	–	–	26.7 ± 0.2	–
303.15 K	791.82 ± 0.14	1288.7 ± 0.8	–	1.12 ± 0.01
313.15 K	784.28 ± 0.14	1249.5 ± 0.8	–	0.961 ± 0.012
323.15 K	776.7 ± 0.14	1210.8 ± 0.8	–	0.837 ± 0.012
333.15 K	769.09 ± 0.14	1172.8 ± 0.8	–	0.735 ± 0.011
343.15 K	761.4 ± 0.2	–	–	0.648 ± 0.011
353.15 K	753.7 ± 0.3	–	–	0.576 ± 0.021

CCCCCCCCCCCCCCCC [hexadecane]
[1]
Settings	mass density [kg/m3]	speed of sound [m/s]	surface tension liquid-gas [mN/m]	viscosity [mPa·s]
293.15 K	773.41 ± 0.14	1357.2 ± 0.8	–	3.44 ± 0.02
294 K	–	–	27.1 ± 0.3	–
303.15 K	766.47 ± 0.14	1319.5 ± 0.8	–	2.72 ± 0.02
313.15 K	759.55 ± 0.15	1283.3 ± 0.8	–	2.21 ± 0.02
323.15 K	752.63 ± 0.15	1247.3 ± 0.8	–	1.83 ± 0.01
333.15 K	745.71 ± 0.15	1212 ± 0.8	–	1.54 ± 0.01
343.15 K	738.8 ± 0.2	–	–	1.31 ± 0.01
353.15 K	731.9 ± 0.3	–	–	1.14 ± 0.01
363.15 K	–	–	–	0.994 ± 0.012
373.15 K	–	–	–	0.878 ± 0.012

CCCCCCCCCCCCCCCC [hexadecane] + CCCCC1CCCCC1
[2]
Settings	viscosity [mPa·s]
293.15 K	3.44 ± 0.02
303.15 K	2.72 ± 0.02
313.15 K	2.21 ± 0.02
323.15 K	1.83 ± 0.01
333.15 K	1.54 ± 0.01
343.15 K	1.31 ± 0.01
353.15 K	1.14 ± 0.01

Cc1ccccc1 [toluene]
[1]
Settings	mass density [kg/m3]	speed of sound [m/s]	surface tension liquid-gas [mN/m]	viscosity [mPa·s]
293.15 K	866.84 ± 0.13	1326.6 ± 0.8	–	0.607 ± 0.011
294.2 K	–	–	28.6 ± 0.2	–
303.15 K	857.52 ± 0.13	1283.6 ± 0.8	–	0.54 ± 0.011
313.15 K	848.14 ± 0.14	1241.1 ± 0.8	–	0.483 ± 0.011
323.15 K	838.68 ± 0.14	1199.2 ± 0.8	–	0.434 ± 0.011
333.15 K	829.15 ± 0.14	1157.7 ± 0.8	–	0.391 ± 0.011
343.15 K	819.6 ± 0.2	–	–	0.349 ± 0.027
353.15 K	809.8 ± 0.5	–	–	0.307 ± 0.011

Cc1ccccc1 [toluene] + CCCCC1CCCCC1
[2]
Settings	viscosity [mPa·s]
293.15 K	0.607 ± 0.011
303.15 K	0.54 ± 0.011
313.15 K	0.483 ± 0.011
323.15 K	0.434 ± 0.011
333.15 K	0.391 ± 0.011
343.15 K	0.349 ± 0.011
353.15 K	0.307 ± 0.011
